Measurements: PubChem BioAssay (NCI)
Where “and” joins values, the source holds several entries; their conditions need not be identical. Equal values may be shown once.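 How tested: cells in 96-well plates exposed to compound for 48 hours at five concentrations. Here, GI50 denotes the concentration required for 50% inhibition of growth. TGI: concentration producing complete growth inhibition.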

The compounds below were run on UACC-62 melanoma (assay: NCI anticancer screen, dose series, 48 h).

SMILES | GI50 | TGI
O=C(c1ccco1)c1c(C(F)(F)F)n([O-])c2ccc(C(F)(F)F)cc2[n+]1=O | 1.11 µM | 2.32 µM
CCN1c2ccccc2-c2c3c1cc(C)cc3c1ccccc1[n+]2CC | – | 2.23 µM
CC(=O)N1CCN(c2ccc(OCC3COC(Cn4ccnc4)(c4ccc(Cl)cc4Cl)O3)cc2)CC1 (stereo not given) | – | 38 µM
O=C(Cc1nc2c3c(ccc2[nH]c1=O)C(=O)c1ccccc1C3=O)C(=O)Nc1ccccc1[N+](=O)[O-] | – | 59 µM
Nc1nc(-c2ccc(Cl)c([N+](=O)[O-])c2)cs1 | – | > 100 µM
CC1(C)CN=C(NN=C(/C=C/c2ccc(C(F)(F)F)cc2)/C=C/c2ccc(C(F)(F)F)cc2)NC1 | 1.72 µM | 3.31 µM
COc1cc(/C=C\c2cc(OC)c(OC)c(OC)c2)cc(N/C=C\C(=O)c2c[nH]c3ccccc23)c1OC | 1.39 µM | 3.33 µM
Cn1c(=O)c2c(nc(C(=N)SCC(=O)O)n2C)n(C)c1=O | – | > 100 µM
COc1ccc(-c2nn(-c3cccc(Cl)c3)cc2-c2cc(-c3ccccc3)[nH]c(=O)c2C#N)cc1 | 2.26 µM | 11.1 µM
CC(C)(C)[Si](C)(C)OC1[C@@H](CNC(=O)NC(=O)CCl)O[C@@H](n2cnc3c(N)ncnc32)[C@H]1O[Si](C)(C)C(C)(C)C (stereo not given in full) | 0.877 µM | 1.74 µM
NC(=O)C(=O)CC(=O)c1ccccc1NC1=CC(=O)C(=O)c2ccccc21 | – | > 72.4 µM
CC1CC(O)C(=O)C(O[C@@H]2C[C@@H]3CC[C@@H]4[C@H](CC[C@]5(C)C(C6=CC(=O)OC6)CC[C@]45O)[C@@]3(C=O)C[C@H]2O)O1 (stereo not given in full) | – | 0.178 µM
CCCC(=O)C1=C(O)C(Cc2c(O)c(C)c(O)c(C(=O)CCC)c2O)=C(O)C(C)(C)C1=O | – | > 50 µM
Cc1ccccc1C1=[N+]([O-])c2ccc(Cl)cc2C1=O | – | 24.9 µM
c1coc(-c2c3ccc(=[N+]4CCCCC4)cc-3oc3cc(N4CCCCC4)ccc23)c1 | 0.102 µM | 1.09 µM
Cc1[nH]c2ccccc2c1C1Cc2ccccc2N1C(=O)C#Cc1ccc([N+](=O)[O-])cc1 (stereo not given) | – | > 100 µM
CCC/C=C/C=C/C1CC(O)C(O)C(=O)C1CO (stereo not given) | – | > 100 µM

Each compound was assayed on HCC-2998 colon (assay: NCI anticancer screen, dose series, 48 h).

SMILES | GI50 | TGI
O=C(O)c1cccc(COc2ccc([N+](=O)[O-])cc2Cl)c1 | > 100 µM | > 100 µM
COC(=O)C1=COC(C)C2CN3CCc4c([nH]c5ccccc45)C3CC12 (stereo not given) | 20.6 µM and > 100 µM | 44.7 µM and > 100 µM
CCC(C)(O)c1cnc(CC(C)C)c(=O)n1O (stereo not given) | – | > 100 µM
CCC1CN2CCc3cc(OC)c(OC)cc3C2CC1CC1c2cc(OC)c(OC)cc2CCN1C(=O)C1CCCN1 (stereo not given) | – | 58.6 µM
CC(C(=O)c1ccc(Cl)cc1)/C(=N/NC(=O)NN)C(=O)Nc1cccc(C(F)(F)F)c1 (stereo not given) | – | > 100 µM
COc1cc2c(/C=N\N=C(N)N)c[nH]c2cc1C | 15.8 µM | 29.2 µM
CCOP(=O)(OCC)C(C(=O)OC)C(=O)C(=O)Nc1ccc(Cl)cc1Cl (stereo not given) | – | > 100 µM
Cn1cc(-c2csc(-c3cn(CCCCN4CCCCC4)c4ccccc34)n2)c2cccnc21 | 1.85 µM | 3.41 µM
C=CC(=O)N1CN(C(=O)C=C)CN(C(=O)C=C)C1 | 10.2 µM | 25.3 µM
CC(C)(C)c1ccc2c(c1)S(=O)(=O)Nc1ccc(Cl)cc1NS(=O)(=O)c1cc(C(C)(C)C)ccc1OCCOCCOCCO2 | – | > 100 µM
O=C(/C(=C\c1c(-c2ccccc2)[nH]c2ccccc12)S(=O)(=O)c1ccccc1)c1ccccc1 | > 100 µM | > 100 µM
COc1ccc(C(=O)c2cc(OC)c(OC)c(OC)c2)cc1OC | – | 5.79 µM
O=C1c2ccccc2-c2c1c1ccccc1c(=O)n2CCN1CCNCC1 | 0.785 µM | 5.01 µM
Nc1c(-c2ccccc2-c2c(N)[n+]([O-])c3ccccc3[n+]2[O-])[n+]([O-])c2ccccc2[n+]1[O-] | – | > 100 µM
O=C(c1ccco1)c1c(C(F)(F)F)n([O-])c2ccc(C(F)(F)F)cc2[n+]1=O | 1.04 µM | 2.5 µM
CCN1c2ccccc2-c2c3c1cc(C)cc3c1ccccc1[n+]2CC | – | 2.11 µM

SMILES | GI50 | TGI
CC(=O)N1CCN(c2ccc(OCC3COC(Cn4ccnc4)(c4ccc(Cl)cc4Cl)O3)cc2)CC1 (stereo not given) | – | > 100 µM
O=C(Cc1nc2c3c(ccc2[nH]c1=O)C(=O)c1ccccc1C3=O)C(=O)Nc1ccccc1[N+](=O)[O-] | – | 36.8 µM
CC1=C(C#N)C(=O)CC(c2ccc(Cl)cc2)N(C)N1 (stereo not given) | – | > 100 µM
Nc1nc(-c2ccc(Cl)c([N+](=O)[O-])c2)cs1 | – | > 100 µM
CC1(C)CN=C(NN=C(/C=C/c2ccc(C(F)(F)F)cc2)/C=C/c2ccc(C(F)(F)F)cc2)NC1 | 1.41 µM | 2.92 µM
COc1cc(/C=C\c2cc(OC)c(OC)c(OC)c2)cc(N/C=C\C(=O)c2c[nH]c3ccccc23)c1OC | 3.34 µM | 10.5 µM
COc1ccc(-c2nn(-c3cccc(Cl)c3)cc2-c2cc(-c3ccccc3)[nH]c(=O)c2C#N)cc1 | 15.9 µM | > 50 µM
CC(C)(C)[Si](C)(C)OC1[C@@H](CNC(=O)NC(=O)CCl)O[C@@H](n2cnc3c(N)ncnc32)[C@H]1O[Si](C)(C)C(C)(C)C (stereo not given in full) | 1.61 µM | 3.95 µM
NC(=O)C(=O)CC(=O)c1ccccc1NC1=CC(=O)C(=O)c2ccccc21 | – | > 100 µM
CC1CC(O)C(=O)C(O[C@@H]2C[C@@H]3CC[C@@H]4[C@H](CC[C@]5(C)C(C6=CC(=O)OC6)CC[C@]45O)[C@@]3(C=O)C[C@H]2O)O1 (stereo not given in full) | – | 0.243 µM
CCCC(=O)C1=C(O)C(Cc2c(O)c(C)c(O)c(C(=O)CCC)c2O)=C(O)C(C)(C)C1=O | – | 34.2 µM
Cc1ccccc1C1=[N+]([O-])c2ccc(Cl)cc2C1=O | – | 29.4 µM
c1coc(-c2c3ccc(=[N+]4CCCCC4)cc-3oc3cc(N4CCCCC4)ccc23)c1 | 0.0751 µM | 0.331 µM
Cc1[nH]c2ccccc2c1C1Cc2ccccc2N1C(=O)C#Cc1ccc([N+](=O)[O-])cc1 (stereo not given) | – | > 100 µM
CCC/C=C/C=C/C1CC(O)C(O)C(=O)C1CO (stereo not given) | – | > 100 µM
Cn1c(=O)nc2n(-c3cc(C(F)(F)F)cc(C(F)(F)F)c3)c3ccccc3nc-2c1=O | – | > 100 µM

Each compound was assayed on A498 renal (assay: NCI anticancer screen, dose series, 48 h).

SMILES | GI50 | TGI
COC(=O)C1=COC(C)C2CN3CCc4c([nH]c5ccccc45)C3CC12 (stereo not given) | 21.1 µM and 74.9 µM | 49.7 µM and > 100 µM
CCC(C)(O)c1cnc(CC(C)C)c(=O)n1O (stereo not given) | – | > 100 µM
CCC1CN2CCc3cc(OC)c(OC)cc3C2CC1CC1c2cc(OC)c(OC)cc2CCN1C(=O)C1CCCN1 (stereo not given) | – | 56.6 µM
CC(C(=O)c1ccc(Cl)cc1)/C(=N/NC(=O)NN)C(=O)Nc1cccc(C(F)(F)F)c1 (stereo not given) | – | > 100 µM
COc1cc2c(/C=N\N=C(N)N)c[nH]c2cc1C | 27.3 µM | 73.9 µM
CCOP(=O)(OCC)C(C(=O)OC)C(=O)C(=O)Nc1ccc(Cl)cc1Cl (stereo not given) | – | > 100 µM
Cn1cc(-c2csc(-c3cn(CCCCN4CCCCC4)c4ccccc34)n2)c2cccnc21 | 1.61 µM | 3 µM
C=CC(=O)N1CN(C(=O)C=C)CN(C(=O)C=C)C1 | 15.3 µM | 32.4 µM
CC(C)(C)c1ccc2c(c1)S(=O)(=O)Nc1ccc(Cl)cc1NS(=O)(=O)c1cc(C(C)(C)C)ccc1OCCOCCOCCO2 | – | > 100 µM
COc1c(C)n(CCO)ccc1=O | – | > 100 µM
Nc1c(-c2ccccc2-c2c(N)[n+]([O-])c3ccccc3[n+]2[O-])[n+]([O-])c2ccccc2[n+]1[O-] | – | 71.4 µM
CN(C)CCNCCN | – | > 100 µM
COC(=O)c1cc2c(o1)-c1nccc3c1c(nc1ccccc13)C2=O | 18 µM | 39.1 µM
O=C(c1ccco1)c1c(C(F)(F)F)n([O-])c2ccc(C(F)(F)F)cc2[n+]1=O | 1.41 µM | 2.76 µM
CCN1c2ccccc2-c2c3c1cc(C)cc3c1ccccc1[n+]2CC | – | 13.9 µM
CC(=O)N1CCN(c2ccc(OCC3COC(Cn4ccnc4)(c4ccc(Cl)cc4Cl)O3)cc2)CC1 (stereo not given) | – | > 100 µM
CC1=C(C#N)C(=O)CC(c2ccc(Cl)cc2)N(C)N1 (stereo not given) | – | > 100 µM
Nc1nc(-c2ccc(Cl)c([N+](=O)[O-])c2)cs1 | – | 92.1 µM
CC1(C)CN=C(NN=C(/C=C/c2ccc(C(F)(F)F)cc2)/C=C/c2ccc(C(F)(F)F)cc2)NC1 | 1.42 µM | 2.78 µM
COc1cc(/C=C\c2cc(OC)c(OC)c(OC)c2)cc(N/C=C\C(=O)c2c[nH]c3ccccc23)c1OC | 1.32 µM | 12 µM
Cn1c(=O)c2c(nc(C(=N)SCC(=O)O)n2C)n(C)c1=O | – | 66.7 µM
COc1ccc(-c2nn(-c3cccc(Cl)c3)cc2-c2cc(-c3ccccc3)[nH]c(=O)c2C#N)cc1 | 0.171 µM | 1.6 µM
CC(C)(C)[Si](C)(C)OC1[C@@H](CNC(=O)NC(=O)CCl)O[C@@H](n2cnc3c(N)ncnc32)[C@H]1O[Si](C)(C)C(C)(C)C (stereo not given in full) | 6.21 µM | 12.8 µM
NC(=O)C(=O)CC(=O)c1ccccc1NC1=CC(=O)C(=O)c2ccccc21 | – | > 100 µM
CC1CC(O)C(=O)C(O[C@@H]2C[C@@H]3CC[C@@H]4[C@H](CC[C@]5(C)C(C6=CC(=O)OC6)CC[C@]45O)[C@@]3(C=O)C[C@H]2O)O1 (stereo not given in full) | – | 0.232 µM
CCCC(=O)C1=C(O)C(Cc2c(O)c(C)c(O)c(C(=O)CCC)c2O)=C(O)C(C)(C)C1=O | – | > 50 µM
Cc1ccccc1C1=[N+]([O-])c2ccc(Cl)cc2C1=O | – | 71.4 µM
